Two compounds from BindingDB's records for doi:10.3109/14756366.2011.596836 (Artvin Coruh University, 2012) can be followed below.

Structures are written as SMILES.

Holding throughout (test): CA Activity Assay
Common to all, as to settings: pH 7.4

One test deals with Carbonic anhydrase 1 (Homo sapiens, UniProt P00915). On the procedure: (§1) The enzymatic reaction, in a total volume of 3.0 mL, contained 1.4-mL 0.05-M Tris SO4 buffer (pH 7.4), 1-mL 3-mM 4-NPA, 0.5-mL H2O and 0.1-mL enzyme solution. A reference measurement was obtained by preparing the same cuvette without enzyme solution. The inhibitory effects of the phenolic compounds were examined. All compounds were tested in triplicate at each concentration used. Different concentrations of the compounds were used.

For a further test, the target named is Carbonic anhydrase 2 (Homo sapiens, UniProt P00918). The procedure:
as §1

The next test deals with Carbonic anhydrase 6 (Homo sapiens, UniProt P23280). The procedure: as §1

What is called Ki is a dissociation constant, usually derived from enzyme kinetics or from competition with a known ligand. Low readings indicate a stronger hold on the target, high ones a looser hold on the target.

Carbonic anhydrase 1, sequence (P00915 whole entry): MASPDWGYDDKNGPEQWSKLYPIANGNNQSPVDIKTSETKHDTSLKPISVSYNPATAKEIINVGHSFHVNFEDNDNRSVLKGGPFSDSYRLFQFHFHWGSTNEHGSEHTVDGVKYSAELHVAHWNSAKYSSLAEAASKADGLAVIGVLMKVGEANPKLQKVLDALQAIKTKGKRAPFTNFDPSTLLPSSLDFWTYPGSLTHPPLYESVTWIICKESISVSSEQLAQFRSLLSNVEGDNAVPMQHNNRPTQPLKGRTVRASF
Carbonic anhydrase 6, sequence (P23280 whole entry): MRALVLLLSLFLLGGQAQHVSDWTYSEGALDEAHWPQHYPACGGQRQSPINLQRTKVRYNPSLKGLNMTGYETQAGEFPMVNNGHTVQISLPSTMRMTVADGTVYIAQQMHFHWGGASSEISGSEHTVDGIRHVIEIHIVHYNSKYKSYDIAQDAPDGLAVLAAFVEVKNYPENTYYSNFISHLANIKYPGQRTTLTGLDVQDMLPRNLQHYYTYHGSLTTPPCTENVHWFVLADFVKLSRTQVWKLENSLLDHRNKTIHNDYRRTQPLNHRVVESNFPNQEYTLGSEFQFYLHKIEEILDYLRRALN

Regarding `COc1ccc(C(=O)c2ccc(OC)c(OC)c2)cc1OC` [hCA inhibitor, 2], the results for the Ki on Carbonic anhydrase 1, on Carbonic anhydrase 2 and at Carbonic anhydrase 6 were 403 µM, 47.8 µM and 293 µM, respectively.

In the case of `O=C(c1ccc(O)c(O)c1)c1ccc(O)c(O)c1` [Bis(3,4-dihydroxyphenyl)methanone], the Ki at Carbonic anhydrase 1 came to 18 µM; at Carbonic anhydrase 2 it was 1.44 µM; on Carbonic anhydrase 6, 11.4 µM.
